From the NIST ThermoML archive (doi:10.1021/je400260c)
± gives the expanded uncertainty stated by the source.

Details: Crystal; DTA

Normal melting temperature [°C]	Compound
44.6 ± 0.9	CCCCCCCCCCCC(=O)O [dodecanoic acid]
63 ± 1.1	CCCCCCCCCCCCCCCC(=O)O [hexadecanoic acid]
69.8 ± 0.5	CCCCCCCCCCCCCCCCCC(=O)O [octadecanoic acid]
54.4 ± 0.5	CCCCCCCCCCCCCC(=O)O [tetradecanoic acid]
